Results as given in patent US20090156620A1, “[4-(6-FLUORO-7-METHYLAMINO-2,4-DIOXO-1,4-DIHYDRO-2H-QUINAZOLIN-3-YL)-PHENYL]-5-CHLORO-THIOPHEN-2-YL-SULFONYLUREA SALTS, FORMS AND METHODS RELATED THERETO” (Portola Pharmaceuticals, Inc., priority 2007, published 2009).

Experiments:
[1] = target: T1, P2Y12 receptor on platelets (Homo sapiens, UniProt Q9H244); test: platelet ADP receptor binding assay (ARB), inhibition of [3H]2-MeS-ADP binding to platelets
T1 construct: endogenous in cells; host or cells: whole apyrase-washed human platelets (outdated from hospital blood banks, or fresh)
Method: 1. The Ability of Candidate Molecules to Inhibit the Binding of [3H]2-MeS-ADP to the P2Y12 Receptor on Platelets was Determined Using a Radioligand Binding Assay
Utilizing this assay the potency of inhibition of such compounds with respect to [^3H]2-MeS-ADP binding to whole platelets is determined. Under the conditions described in II (3) below, the binding of [^3H]2-MeS-ADP is solely due to the interaction of this ligand with the P2Y12 receptor, in that all the specific binding measured in this assay is compatable with a P2Y12 antagonist (i.e., the specific binding is reduced to background levels by competition with an excess of P2Y12 antagonist, with no competition of binding when a P2Y1 antagonist is pre-incubated with the platelet preparation). […]
A platelet ADP receptor binding assay (ARB) using the tritiated potent agonist ligand [^3H]2-MeS-ADP (Jantzen, H. M. et al. (1999) Thromb. Hemost. 81:111-117) has been adapted to the 96-well microtiter format. […] Total binding is determined in the absence of test compounds. […] The platelet-bound radioactivity on the filtermats is determined in a scintillation counter (Microbeta 1450, Wallac Inc., Gaithersburg, Md.). Specific binding is determined by subtraction of non-specific binding from total binding, and specific binding in the presence of test compounds is expressed as % of specific binding in the absence of test compound dilutions. […]

[2] = tested on: ADP-induced human platelet aggregation; test: inhibition of ADP-mediated platelet aggregation in platelet-rich plasma (PRP assay); type: cell-based
Method: The effect of testing the compound according to the invention on ADP-induced human platelet aggregation was assessed in a 96-well microtiter assay (see generally the procedures in Jantzen, H. M. et al. (1999) Thromb. Hemost. 81:111′-117) or standard cuvette light transmittance aggregometry using either human platelet-rich plasma (PRP) or human washed platelets.
For preparation of human platelet-rich plasma for aggregation assays, human venous blood was collected from healthy, drug-free volunteers into 0.38% sodium citrate (0.013 M, pH 7.0 final). Platelet-rich plasma (PRP) is prepared by centrifugation of whole blood at 160×g for 20 minutes at room temperature. […]
For cuvette light transmittance aggregation assays, serial dilutions (1:3) of test compounds were prepared in 100% DMSO in a 96 well V-bottom plate (final DMSO concentration in the cuvette was 0.6%). […] The aggregation reaction is recorded for ˜5 mins, and maximum extent of aggregation is determined by the difference in extent of aggregation at baseline, compared to the maximum aggregation that occurs during the five minute period of the assay. Inhibition of aggregation was calculated as the maximum aggregation observed in the presence of inhibitor, compared to that in the absence of inhibitor. […]

[3] = gravimetric vapour sorption (GVS); type: physicochemical
Method: Sorption isotherms were obtained using a Hiden IGASorp moisture sorption analyser, controlled by CFRSorp software. The sample temperature was maintained at 25° C. by a Huber re-circulating water bath. The humidity was controlled by mixing streams of dry and wet nitrogen, with a total flow rate of 250 ml.min^−1. […] (typical room conditions). A moisture sorption isotherm was performed as outlined below (2 scans giving 1 complete cycle). […] The software uses a least squares minimisation procedure together with a model of the mass relaxation, to predict an asymptotic value. […] The minimum equilibration time was set to 1 hour and the maximum to 4 hours. The sample was recovered after completion of the isotherm and re-analysed by XRPD.

[4] = accelerated stability test, chemical purity; type: physicochemical; details: one week, 40° C., 75% RH
Method: Purity analysis was performed on an Agilent HP1100 system equipped with a diode array detector and using ChemStation software v9.

[5] = polymorphism experiments, form B slurried in solvents; type: physicochemical; details: ca. 50 mg in ten volumes, ambient, two hours
Excerpt: The propensity of [4-(6-fluoro-7-methylamino-2,4-dioxo-1,4-dihydro-2H-quinazolin-3-yl)-phenyl]-5-chloro-thiophen-2-yl-sulfonylurea potassium salt form B to form polymorphs was studied. Form B (a hemi-hydrate) was slurried in a range of solvents (neat and mixtures). The solvents were chosen based on their pharmaceutical acceptability and also a range of functional groups and polarities such as alcohols, ethers and esters. To encourage hydrate formation, aqueous mixtures were also chosen. The solvents used are detailed in Table 7.
Approximately 50 mg of [4-(6-fluoro-7-methylamino-2,4-dioxo-1,4-dihydro-2H-quinazolin-3-yl)-phenyl]-5-chloro-thiophen-2-yl-sulfonylurea potassium salt, form B was suspended in ten volumes of the solvents detailed in table 7 and stirred at ambient for two hours. […] The suspensions were filtered under vacuum and analysed by XRPD. Most of the solids remained as form B, with a 1:1 acetone/water mixture leading to a subtle change in solid form. The 1:1 tetrahydrofuran/water mixture generated a mixture of that subtly different form and form B.
To all the form B samples a further aliquot of five volumes of appropriate solvent was added and the suspensions were slurried at 50° C. for 4 hours then cooled to ambient for 4 hours. This cycle was repeated for a total of 24 hours, after which time the suspensions were filtered under vacuum and analysed by XRPD.

[6] = solid form stability on storage at elevated temperature/humidity, by XRPD; type: physicochemical; details: 75% RH/40° C. for up to 6 months
Method: To 20 mg of [4-(6-fluoro-7-methylamino-2,4-dioxo-1,4-dihydro-2H-quinazolin-3-yl)-phenyl]-5-chloro-thiophen-2-yl-sulfonylurea in 3 mL of the various solvents, was added 1.1 eq. of the base in 1 mL solvent. The mixture was shaken for 2 hours and the solutions were left to evaporate down to half their volume to try to precipitate out the salt. […] Oils/emulsions and opaque liquids were left to maturate at 50° C./ambient in an 8 hour cycles for several weeks. […] Solid samples (crystalline and amorphous) were then filtered, dried and then analyzed to judge their purity, crystallinity and stability. Solids were analysed by ^1H NMR to confirm salt formation and analyzed by ion chromatography and TGA to obtain the stoichiometry of the salt.

[7] = solid form stability of API dispersed in aqueous vehicle; type: physicochemical; details: dry ground API dispersed into aqueous 0.1M phosphate buffer
Excerpt: It was observed that after grinding the API with the diluent of Tox formulation, i.e., 0.5% methylcellulose and 0.1M phosphate sodium buffer at pH7.4, the drug particles became very dense and quickly precipitated during transfer and dosing. […] In addition, if only dry grinding is used to reduce the particle size of the API first and subsequently, the API is quickly dispersed into aqueous 0.1M phosphate buffer without applying significant mechanical stress, the solid form of the API can be maintained in form B for at least 6 hours.

T1 sequence (Q9H244 whole entry): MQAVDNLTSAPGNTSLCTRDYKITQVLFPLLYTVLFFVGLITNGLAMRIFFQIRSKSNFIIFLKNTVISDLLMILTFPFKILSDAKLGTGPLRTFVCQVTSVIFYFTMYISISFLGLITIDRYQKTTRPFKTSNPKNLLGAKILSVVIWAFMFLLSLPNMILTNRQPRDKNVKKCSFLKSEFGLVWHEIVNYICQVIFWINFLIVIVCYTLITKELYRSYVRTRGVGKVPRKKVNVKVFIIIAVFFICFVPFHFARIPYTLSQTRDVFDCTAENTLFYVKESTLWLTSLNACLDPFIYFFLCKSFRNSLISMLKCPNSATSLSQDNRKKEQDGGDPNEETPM

## CNc1cc2[nH]c(=O)n(-c3ccc(NC(=O)NS(=O)(=O)c4ccc(Cl)s4)cc3)c(=O)c2cc1Cl [Example 3, [4-(6-chloro-7-methylamino-2,4-dioxo-1,4-dihydro-2H-quinazolin-3-yl)-phenyl]-5-chloro-thiophen-2-1-sulfonylurea]
[1]
  IC50: > 0.5 µM
[2]
  IC50: > 30 µM

## CNc1cc2[nH]c(=O)n(-c3ccc(NC(=O)NS(=O)(=O)c4ccc(Cl)s4)cc3)c(=O)c2cc1F.[K] [Form A of the potassium salt, [4-(6-fluoro-7-methylamino-2,4-dioxo-1,4-dihydro-2H-quinazolin-3-yl)-phenyl]-5-chloro-thiophen-2-yl-sulfonylurea potassium salt 2.5 hydrate]
[3]
  hygroscopicity: less hygroscopic than the amorphous form of the sodium salt
[3]; 25° C.
  RH range in which the 2.5 hydrate is stable: 20-90 % RH
  dehydration: dehydrates between 20 and 0% RH
[4]
  change in the chemical purity: No change

## [4-(6-fluoro-7-methylamino-2,4-dioxo-1,4-dihydro-2H-quinazolin-3-yl)-phenyl]-5-chloro-thiophen-2-yl-sulfonylurea potassium salt hemi hydrate [Form B of the potassium salt]
[5]
  solvents that dissolved the salt: 2-methoxyethanol was the only solvent that dissolved the potassium salt
[6]
  change in solid state: no change in solid state
[7]
  time the solid form is maintained in form B: at least 6 hours
[3]
  XRPD after the GVS experiment: no phase change
  hygroscopicity: non-hygroscopic
